Laboratory results as given in article PMC9661478 (Journal of Medicinal Chemistry, 2022).
pIC50: −log10 of the molar value.

Assays:
[1] = tested on: GP2D cells; test: GP2D proliferation assay; format: cell-based; conditions: KRAS^G12D mutation
[2] = tested on: p-ERK; test: pERK1/2 immunoassay; conditions: 40 mg/kg ip daily x3
[3] = tested on: LS513 cells; test: LS513 proliferation assay; format: cell-based; conditions: KRAS^G12D mutation
[4] = Body weight changes in the NCI-H358 efficacy study; conditions: both dose groups; less pronounced for the low dose group
[5] = tested on: cleaved caspase 3; test: Cleaved caspase-3 immunoassay; conditions: 40 mg/kg ip daily x3
[6] = molecular target: GDP-KRAS^G12C::SOS1 interaction (Homo sapiens, UniProt P01116, G12C); test: biochemical
GDP-KRAS^G12C::SOS1 interaction, sequence (P01116 1-169 isoform P01116-2 G12C limits assumed): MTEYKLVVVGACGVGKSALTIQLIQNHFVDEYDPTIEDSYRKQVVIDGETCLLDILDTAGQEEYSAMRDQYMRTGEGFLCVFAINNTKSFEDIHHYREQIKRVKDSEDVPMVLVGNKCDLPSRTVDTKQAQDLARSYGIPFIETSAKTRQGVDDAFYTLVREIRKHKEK

**Q.** Which “concentration above which antiproliferative effect was observed, GP2D cells” value [1] does the source give for `C=CC(=O)N1CCN(c2cc(-c3noc([C@@]4(C)CCCc5sc(N)c(C#N)c54)n3)nc(N3CCN(C)C[C@@H]3C)c2)CC1` [BI-0474, (4S)-2-Amino-4-(3-{6-[(2S)-2,4-dimethylpiperazin-1-yl]-4-[4-(prop-2-enoyl)piperazin-1-yl]pyridin-2-yl}-1,2,4-oxadiazol-5-yl)-4-methyl-4,5,6,7-tetrahydro-1-benzothiophene-3-carbonitrile] here?
**A.** above 4 μM

**Q.** And the “reduction of p-ERK levels” value ([2]; 2 h post last dose)?
**A.** five-fold

**Q.** And the “reduction of p-ERK levels” value ([2]; 6 h post last dose)?
**A.** six-fold

**Q.** And the “concentration above which antiproliferative effect was observed, LS513 cells” value [3]?
**A.** above 4 μM

**Q.** What about the “body weight change compared to vehicle” value [4] of the same compound?
**A.** some body weight loss

**Q.** And the “induction of apoptosis (cleaved caspase 3) detectable in treated samples” value ([5]; 2 h post-dose on day 3)?
**A.** one out of five

**Q.** What about the “induction of apoptosis (cleaved caspase 3) detectable in treated samples” value ([5]; 6 h post-dose on day 3) of the same compound?
**A.** all five

**Q.** With `C=CC(=O)N1CCN(c2cccc(-c3noc([C@@]4(C)CCCc5sc(N)c(C#N)c54)n3)c2)CC1` [Compound 22, (4S)-2-Amino-4-methyl-4-(3-{3-[4-(prop-2-enoyl)piperazin-1-yl]phenyl}-1,2,4-oxadiazol-5-yl)-4,5,6,7-tetrahydro-1-benzothiophene-3-carbonitrile] as the compound, how does the pIC50 [6] read?
**A.** ~5.52
